Results published in patent US7629156B2, “Ethanol production in fermentation of mixed sugars containing xylose” (E.I. du Pont de Nemours and Company, priority 2006, dated 2009).

Legend:
Format in all cases: cell-based, Zymomonas mobilis
ZW658 strain [1] = experiment: Tube fermentation of ZW658 on glucose and xylose with various sugar alcohols (Example 13); conditions: sugar alcohol in the medium vs control
Experimental: (§1) Approximately 1 ml of well mixed sample was obtained from flask or fermentor. First the sample absorbance was measured directly with a spectrophotometer (Amersham Biosciences Ultrospec 3300pro, GE Healthcare, Piscataway, N.J., USA). If the reading was lower than 0.6 unit, no dilution was needed. If the reading was higher than 0.6 unit, the sample was diluted with culture medium until the actual reading was in the range of 0.1 to 0.6 unit. The original OD was calculated from the dilution ratio and the actual reading.
(§2) The analysis of sugars, acetate, ethanol, and other by-products was done with an Agilent 1100 series HPLC and Agilent ChemStation software for LC 3D. The column was BioRad Aminex HPX-87H(HPLC Organic Analysis Column 125-0140) with BioRad Micro-Guard Cartridge Cation-H (125-0129). The operating conditions were:
In eight sterilized 50 ml screw-cap centrifuge tubes (Cat. No. 21008-178, VWR International, USA), 200 μl of ZW658 strain glycerol stock at OD600 of approximately 10 was inoculated into each flask with 25 ml of aqueous solution containing 92 g/L glucose, 82 g/L xylose, 10 g/L yeast extract (YE), 2 g/L KH2PO4, 1 g/L MgSO4.7H2O, and either 10 mM of sorbitol, arabitol, adonitol (also called ribitol), or galactitol; or 50 mM of arabitol, adonitol, or galactitol. The control had no sugar alcohol added. Initial pH was adjusted to 5.5 with 4 N H3PO4 solution. Fermentation was conducted at 33° C. and pH was not controlled. Samples were taken periodically between 0 and 40 hr. Samples were filtered through 0.22 micron filters, and the filtrates were analyzed by HPLC as described in General Methods for glucose, xylose, xylitol, and ethanol. Samples were diluted with medium (as described in General Methods) and the OD600 was measured to monitor cell growth. Results of growth and glucose utilization are given in FIGS. 20A and 20B, respectively. Results of xylose utilization and ethanol production are given in FIGS. 21A and 21B, respectively. Cultures with sorbitol or galactitol grew much faster and better than the control. Cultures with adonitol also grew better. After 40 hours, the OD600 were 7 to 8, for cultures supplemented with sorbitol or galactitol; the OD600 were about 5, for cultures supplemented with adonitol; while the OD600 were less than 1 for other cultures. […] The presence of sorbitol, galactitol, or adonitol allowed more xylose utilization, without production of xylitol.

ZW658 strain [2] = experiment: Flask fermentation of ZW658 on high concentration glucose or xylose alone with sorbitol; conditions: for OD600: after 48 hours, 33° C.; for ethanol production rate: 20 mM sorbitol vs no sorbitol
Experimental: as §1, §2
(§3) Glycerol stock of seed frozen at −80° C. was thawed, then inoculated into sterile culture tubes with mixture of 60 g/L glucose, 20 g/L xylose, 10 g/L yeast extract (YE), 10 g/L KH2PO4, 2 g/L (NH4)2SO4, and 1 g/L MgSO4. Initial pH was adjusted to 5.5 with 4 N KOH. This revival culture was grown statically overnight at 37° C. It was transferred into shake flasks with 75 g/L glucose, 25 g/L xylose, 10 g/L yeast extract (YE), 10 g/L KH2PO4, 2 g/L (NH4)2SO4, and 1 g/L MgSO4. Initial pH was adjusted to 5.5 with 4 N KOH. Growth was monitored by measuring OD600. When the OD reached approximately 5, a certain volume of the seed was withdrawn into a sterile syringe for inoculation.
In four sterilized 125 ml Erlenmeyer culture flasks (Cat. No. 30180-036, VWR International, USA), 10 ml of ZW658 strain seed culture at OD600 of approximately 5 was inoculated into each flask with 100 ml of aqueous solution containing 10 g/L yeast extract (YE), 2 g/L KH2PO4, 4 g/L KHCO3. Before inoculation, the first flask also contained 200 g/L glucose and 20 mM sorbitol, comparing to the second flask with 200 g/L glucose only. The third flask contained 200 g/L xylose and 20 mM sorbitol, comparing to the fourth flask with 200 g/L xylose only. After inoculation, sugar concentrations were diluted to about 180 g/L. Initial pH was adjusted to 5.5 with 4 NH3PO4 solution. Mixing speed was set at 150 rpm. Fermentation was conducted at 33° C. and pH was not controlled. Samples were taken periodically. Samples were filtered through 0.22 micron filters, and the filtrates were analyzed by HPLC as described in General Methods for compounds including glucose, xylose, ethanol, and xylitol. Samples were diluted with medium (as described in General Methods) and the OD600 was measured to monitor cell growth. […] After 48 hours, the OD600 were 9.94, 6.46, 5.37 and 5.45, respectively, for the first, second, third, and fourth flask.

ZW658 strain [3] = experiment: Flask fermentation of ZW658 on glucose and xylose with acetate and various polyols; conditions: 10 mM polyol, 3 g/L acetate
Experimental: as §1, §2, §3
In five sterilized 125 ml Erlenmeyer culture flasks (Cat. No. 30180-036, VWR International, USA), 10 ml of ZW658 strain seed culture at OD600 of approximately 5 was inoculated into each flask with 100 ml of aqueous solution containing 100 g/L glucose, 80 g/L xylose, 3 g/L acetate, 10 g/L yeast extract (YE), 2 g/L KH2PO4, 1 g/L MgSO4.7H2O, and 4 g/L KHCO3, and 10 mM of the following polyols: erythritol, sorbitol, mannitol, maltitol, or lactitol; or 5 mM sorbitol plus 5 mM maltitol, or 5 mM sorbitol plus 5 mM lactitol. After inoculation, the total sugar concentration was about 160 g/L due to dilution by the seed culture. Initial pH was adjusted to 5.5 with 4 N H3PO4 solution. Mixing speed was set at 150 rpm. Fermentation was conducted at 33° C. and pH was not controlled. Samples were taken periodically. Samples were filtered through 0.22 micron filters, and the filtrates were analyzed by HPLC as described in General Methods for compounds including glucose, xylose, ethanol, and acetate. Samples were diluted with medium (as described in General Methods) and the OD600 was measured to monitor cell growth.

SMILES: OC[C@@H](O)[C@@H](O)[C@H](O)[C@@H](O)CO [sorbitol]
- ethanol production (ZW658 strain [1]): ethanol production was also better
- xylose utilization (ZW658 strain [1]): More xylose was utilized
- OD600 (ZW658 strain [2]; 200 g/L glucose (about 180 g/L after inoculation), 20 mM sorbitol): 9.94
- OD600 (ZW658 strain [2]; 200 g/L xylose (about 180 g/L after inoculation), 20 mM sorbitol): 5.37
- ethanol production rate (ZW658 strain [2]; glucose culture): more rapid
- xylitol production (ZW658 strain [2]; glucose only or xylose only cultures, 20 mM sorbitol): No xylitol was produced
- effect on growth (ZW658 strain [2]; high concentration glucose culture, 20 mM sorbitol): significantly stimulated growth
- effect on growth (ZW658 strain [2]; high concentration xylose culture, 20 mM sorbitol): almost no effect on growth
- ethanol production rate (ZW658 strain [2]; xylose only culture): at the same rate with and without sorbitol
- ethanol production (ZW658 strain [3]): ethanol production was also better
- xylose utilization (ZW658 strain [3]): More xylose was utilized
- OD600 (ZW658 strain [3]; after 32 hours, total sugar about 160 g/L): 7.88
